Reference: patent US20080021217A1, “HETEROCYCLIC INHIBITORS OF RHO KINASE” (priority 2006, published 2008)
Where a name gives a salt, the structure may show the parent alone.

Assays:
[1] = tested on: lasered (hypertensive) eyes of conscious cynomolgus monkeys; experiment: Acute IOP response in lasered (hypertensive) eyes of conscious cynomolgus monkeys; type: in vivo; details: instilled in right eyes, IOP at 1, 3 and 6 hours; for Peak % Reduction in IOP vs. Control at 1.0%: compound at 1.0%; for Peak % Reduction in IOP vs. Control at 0.3%: compound at 0.3%
From the text: Acute IOP Response in Lasered (Hypertensive) Eyes of Conscious Cynomolgus Monkeys
Intraocular pressure (IOP) can be determined with an Alcon Pneumatonometer after light corneal anesthesia with 0.1% proparacaine. Eyes are washed with saline after each measurement. After a baseline IOP measurement, test compound is instilled in one […] aliquot to the right eyes only of nine cynomolgus monkeys. Vehicle is instilled in the right eyes of six additional animals. Subsequent IOP measurements are taken at 1, 3, and 6 hours, and peak reduction in IOP is reported below in Table 2 as percent of IOP lowering versus the control for each of the given concentrations of compound.
A more detailed description of the assay used herein may be found in May et al., “Evaluation of the Ocular Hypotensive Response of Serotonin 5-HT1A and 5-HT2 Receptor Ligands in Conscious Ocular Hypertensive Cynomolgus Monkeys,” J. of Pharmacology and Experimental Therapeutics, vol. 306(1), pp. 301-309 (2003), the disclosure of which is hereby incorporated by reference as if written herein in its entirety.

[2] = target: T1, recombinant N-terminal GST-tagged human Rho kinase 1 (ROCK1, amino acids 1-535) (Homo sapiens, UniProt Q13464); experiment: In vitro Rho kinase assay (luciferase-based ATP consumption), ROCK1; type: biochemical
T1 construct: ROCK1, amino acids 1-535, Invitrogen Inc., cat. #PV-3691; GST (N); purchased Invitrogen Inc. PV-3691
T1 sequence (Q13464 1-535): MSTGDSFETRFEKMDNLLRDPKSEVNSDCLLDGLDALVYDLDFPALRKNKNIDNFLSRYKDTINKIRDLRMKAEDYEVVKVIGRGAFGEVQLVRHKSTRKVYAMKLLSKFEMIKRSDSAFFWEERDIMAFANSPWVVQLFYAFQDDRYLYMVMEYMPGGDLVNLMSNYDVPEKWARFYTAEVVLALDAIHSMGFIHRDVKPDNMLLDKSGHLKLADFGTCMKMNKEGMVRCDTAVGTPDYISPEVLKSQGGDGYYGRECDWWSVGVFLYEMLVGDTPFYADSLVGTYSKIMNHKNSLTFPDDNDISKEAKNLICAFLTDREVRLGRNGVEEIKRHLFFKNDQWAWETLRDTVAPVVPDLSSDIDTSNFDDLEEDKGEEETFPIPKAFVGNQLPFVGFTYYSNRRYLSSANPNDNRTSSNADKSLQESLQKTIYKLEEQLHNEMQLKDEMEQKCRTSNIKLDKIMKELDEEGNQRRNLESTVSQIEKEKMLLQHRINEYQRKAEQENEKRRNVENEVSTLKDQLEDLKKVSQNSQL
Method: (§1) Rho kinase biochemical assays described below depend on firefly luciferase-based, indirect measurement of total ATP consumption by the kinase following incubation with substrate and ATP. 25 μl of Rho kinase assay buffer (20 mM Tris-HCL [pH 7.5], 1 mM MgCl2, 0.4 mM CaCl2, 0.15 mM EGTA, 0.1 mg/ml bovine serum albumin) containing 0.82 μg/ml of recombinant N-terminal GST-tagged human Rho kinase 1 (ROCK1, amino acids 1-535, Invitrogen Inc., cat. #PV-3691) or recombinant N-terminal GST-tagged human Rho kinase 2 (ROCK2, amino acids 1-552, Invitrogen Inc., cat #PV3759), 100 μg/ml S6 peptide substrate (related to amino acids 218-249 of the human 40S ribosomal protein S6, and suitable for ROCK1 or ROCK2, e.g. Upstate/Millipore Inc., cat #12-420), and 3 µM ATP are dispensed to wells of a 384 multi-well opaque plate. The plate is centrifuged for 30 seconds at approximately 200×g. 240 nl of test compound in DMSO is dispensed to each well by passive pin transfer. The lag phase of this in vitro kinase reaction permits addition of compounds soon after the reaction initiates. The reaction is allowed to incubate at 30° C. for 2 hours. The assay plates are sealed and maintained in a humidified environment. After 2 hours, 25 μl of easyLite protein kinase assay reagent (Perkin-Elmer, Inc.) is dispensed. After an additional 10 minute incubation at room temperature (about 22° C.), luminescence activity is measured on a Molecular Devices Analyst multi-mode plate reader or other suitable plate reader. Kinase inhibition results in less ATP consumption, and therefore increased luminescence signal. Negative control activity is measured with DMSO lacking any test compound. The positive control is 2-methyl-1-(4-methylisoquinolin-5-ylsulfonyl)perhydro-1,4-diazepine hydrochloride (aka H-1152P, HCl salt). Efficacy is measured as a percentage of positive control activity. […] In some cases, kinase reactions and compound testing are performed in 1536 multi-well plates under similar conditions, with assay volumes appropriately scaled. The designated NT means the cited example was not tested.

[3] = target: T2, recombinant N-terminal GST-tagged human Rho kinase 2 (ROCK2, amino acids 1-552) (Homo sapiens, UniProt O75116); experiment: In vitro Rho kinase assay (luciferase-based ATP consumption), ROCK2; type: biochemical
T2 construct: ROCK2, amino acids 1-552, Invitrogen Inc., cat #PV3759; GST (N); purchased Invitrogen Inc. PV3759
T2 sequence (O75116 1-552): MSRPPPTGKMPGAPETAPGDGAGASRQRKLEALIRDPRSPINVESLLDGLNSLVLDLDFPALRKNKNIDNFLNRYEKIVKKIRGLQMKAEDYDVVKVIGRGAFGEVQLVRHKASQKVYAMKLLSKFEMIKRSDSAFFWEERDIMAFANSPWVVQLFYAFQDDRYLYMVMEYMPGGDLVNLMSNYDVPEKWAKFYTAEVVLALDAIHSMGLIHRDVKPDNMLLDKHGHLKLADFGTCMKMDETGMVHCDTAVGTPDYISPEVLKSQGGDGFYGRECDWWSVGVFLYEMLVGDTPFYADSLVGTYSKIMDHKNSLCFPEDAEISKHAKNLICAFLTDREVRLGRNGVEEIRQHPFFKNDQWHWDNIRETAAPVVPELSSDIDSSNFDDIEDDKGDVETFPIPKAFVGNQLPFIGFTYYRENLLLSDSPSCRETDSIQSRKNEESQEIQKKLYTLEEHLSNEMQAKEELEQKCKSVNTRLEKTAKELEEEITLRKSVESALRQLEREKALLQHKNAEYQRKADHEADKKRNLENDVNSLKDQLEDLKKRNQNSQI
Method: as §1

Compound | IC50 [2] [µM] | IC50 [3] [µM] | Peak % Reduction in IOP vs. Control at 1.0% [1] [%] | Peak % Reduction in IOP vs. Control at 0.3% [1] [%]
O=C(NCc1nc(-c2ccncc2)n[nH]1)c1ccc(O)cc1O [Ex. 15 HCl, 2,4-dihydroxy-N-((3-(pyridin-4-yl)-1H-1,2,4-triazol-5-yl)methyl)benzamide] |  |  | 8.8 | 
O=C(NCc1nc(-c2ccncc2)c[nH]1)c1ccc(O)cc1O [Example 6, 2,4-dihydroxy-N-((4-(pyridin-4-yl)-1H-imidazol-2-yl)methyl)benzamide] | < 5 | < 5 |  | 5.8
Cc1cccc(C(=O)NCc2nc(-c3ccncc3)c[nH]2)c1O [Example 7, 2-hydroxy-3-methyl-N-((4-(pyridin-4-yl)-1H-imidazol-2-yl)methyl)benzamide] | < 5 | < 5 |  | 11.0
O=C(NCc1nc(-c2ccncc2)n[nH]1)c1ccc(O)cc1O [Example 15, 2,4-dihydroxy-N-((3-(pyridin-4-yl)-1H-1,2,4-triazol-5-yl)methyl)benzamide] | < 5 | < 5 | 9.8 | 14.9
Cc1cccc(C(=O)NCc2nc(-c3ccncc3)n[nH]2)c1O [Example 22, 2-hydroxy-3-methyl-N-((3-(pyridin-4-yl)-1H-1,2,4-triazol-5-yl)methyl)benzamide] | < 5 | < 5 |  | 11.1
CC(C)C(=O)Oc1ccc(C(=O)NCc2nc(-c3ccncc3)n[nH]2)c(O)c1 [Example 35, 3-Hydroxy-4-((3-(pyridin-4-yl)-1H-1,2,4-triazol-5-yl)methylcarbamoyl)phenyl isobutyrate] | < 5 | < 5 |  | 8.6
CC(=O)Oc1ccc(C(=O)NCc2nc(-c3ccncc3)n[nH]2)c(O)c1 [Example 36, 3-Hydroxy-4-((3-(pyridin-4-yl)-1H-1,2,4-triazol-5-yl)methylcarbamoyl)phenyl acetate] | < 5 | < 5 |  | 8.4

Now from value to molecule, other results behind:

IC50 [2] [µM] | IC50 [3] [µM] | Compound | Peak % Reduction in IOP vs. Control at 1.0% [1] [%] | Peak % Reduction in IOP vs. Control at 0.3% [1] [%]
< 5 | > 5 | Cc1cccc(C(=O)NCc2nc(-c3c[nH]c4ncccc34)n[nH]2)c1O [Example 71, N-((3-(1H-pyrrolo[2,3-b]pyridin-3-yl)-1H-1,2,4-triazol-5-yl)methyl)-2-hydroxy-3-methylbenzamide] |  | 
< 5 | < 5 | CS(=O)(=O)Nc1cccc(C(=O)NCc2nc(-c3c[nH]c4ncccc34)n[nH]2)c1 [Example 72, N-((3-(1H-pyrrolo[2,3-b]pyridin-3-yl)-1H-1,2,4-triazol-5-yl)methyl)-3-(methylsulfonamido)benzamide] |  | 
< 5 | < 5 | CS(=O)(=O)Nc1cccc(C(=O)NCc2nc(-c3c[nH]c4ncccc34)cs2)c1 [Example 73, N-((4-(1H-pyrrolo[2,3-b]pyridin-3-yl)thiazol-2-yl)methyl)-3-(methylsulfonamido)benzamide] |  | 
< 5 | < 5 | COc1cccc(C(=O)NCc2nc(-c3c[nH]c4ncccc34)cs2)c1 [Example 74, N-((4-(1H-pyrrolo[2,3-b]pyridin-3-yl)thiazol-2-yl)methyl)-3-methoxybenzamide] |  | 
< 5 | < 5 | O=C(NCc1nc(-c2c[nH]c3ncccc23)cs1)c1cccs1 [Example 75, N-((4-(1H-pyrrolo [2,3-b]pyridin-3-yl)thiazol-2-yl)methyl)thiophene-2-carboxamide] |  | 
< 5 | < 5 | O=C(NCc1nnc(-c2ccnc3[nH]ccc23)o1)c1ccc(O)cc1O [Example 76, N-((5-(1H-Pyrrolo[2,3-b]pyridin-4-yl)-1,3,4-oxadiazol-2-yl)methyl)-2,4-dihydroxybenzamide] |  | 
< 5 | < 5 | CC(C)(C)OC(=O)NCC[C@H](NC(=O)c1ccc(O)cc1O)c1nc(-c2ccncc2)n[nH]1 [Example 77, (S)-tert-Butyl 3-(2,4-dihydroxybenzamido)-3-(3-(pyridin-4-yl)-1H-1,2,4-triazol-5-yl)propylcarbamate] |  | 
< 5 | < 5 | CC(C)(C)OC(=O)NCCCC(NC(=O)c1ccc(O)cc1O)c1nc(-c2ccncc2)n[nH]1 (stereo not shown) [Example 78, tert-Butyl 4-(2,4-dihydroxybenzamido)-4-(3-(pyridin-4-yl)-1H-1,2,4-triazol-5-yl)butylcarbamate] |  | 
< 5 | < 5 | CC(C)(C)OC(=O)NC[C@H](NC(=O)c1ccc(O)cc1O)c1nc(-c2ccncc2)n[nH]1 [Example 79, (S)-tert-Butyl 2-(2,4-dihydroxybenzamido)-2-(3-(pyridin-4-yl)-1H-1,2,4-triazol-5-yl)ethylcarbamate] |  | 
< 5 | < 5 | Clc1ccc(SCc2nc(-c3ccncc3)n[nH]2)cc1 [Example 80] |  | 
